# Data reported in patent publication US20260042747A1, “KIT INHIBITORS, COMPOUNDS, PHARMACEUTICAL COMPOSITIONS, AND METHODS OF USE THEREOF” (Alivexis, Inc., priority 2022, published 2026).
# Counter-ions that a name gives are not always drawn.
# Molecular target: recombinant human KIT tyrosine kinase protein (Homo sapiens (Human), UniProt P10721)
# Assay: KIT tyrosine kinase assay (ADP-Glo)
# Type: biochemical
# Conditions: @10 uM
# Experimental: An in vitro assay utilizing the recombinant human KIT tyrosine kinase protein was developed to measure compound inhibition of KIT. KIT tyrosine kinase activity was measured by the ADP-Glo Kinase Assay system with poly […]) peptide substrate. Kinase Assay was performed in white 384-well plates and the luminescence was measured by Victor X5 Multilabel Counter (Perkin Elmer). Recombinant intracellular domain of human KIT protein was purchased from Carna Biosciences (Kobe, Japan). Poly […]) peptide was purchased from Sigma-Aldrich (St. Louis, Missouri, USA). ADP-Glo Kinase Assay reagent was purchased from Promega (Madison, Wisconsin, USA). Each test compound was dissolved in 100% DMSO to prepare 10 mM stock solutions. […] After the preincubation, 3 μL of substrate/ATP mixture was added and incubated for 1 hour at room temperature. The tyrosine phosphorylation by KIT kinase was quantified by ADP-Glo kinase assay kit following the manufacturer's protocol. Briefly, the phosphorylation reaction was terminated by adding 10 μL ADP-Glo reagent and incubated for 60 minutes at room temperature. 20 μL of Kinase Detection Reagent was added to each well and luminescence was measured by plate reader. […] Half maximal inhibitory concentration (IC50) was calculated by a Four […] Logistic Regression model using GraphPad Prism (GraphPad Software). The value without recombinant KIT protein and without test compound was used as a negative control (assay background).
# recombinant human KIT tyrosine kinase protein, sequence (P10721 546-976): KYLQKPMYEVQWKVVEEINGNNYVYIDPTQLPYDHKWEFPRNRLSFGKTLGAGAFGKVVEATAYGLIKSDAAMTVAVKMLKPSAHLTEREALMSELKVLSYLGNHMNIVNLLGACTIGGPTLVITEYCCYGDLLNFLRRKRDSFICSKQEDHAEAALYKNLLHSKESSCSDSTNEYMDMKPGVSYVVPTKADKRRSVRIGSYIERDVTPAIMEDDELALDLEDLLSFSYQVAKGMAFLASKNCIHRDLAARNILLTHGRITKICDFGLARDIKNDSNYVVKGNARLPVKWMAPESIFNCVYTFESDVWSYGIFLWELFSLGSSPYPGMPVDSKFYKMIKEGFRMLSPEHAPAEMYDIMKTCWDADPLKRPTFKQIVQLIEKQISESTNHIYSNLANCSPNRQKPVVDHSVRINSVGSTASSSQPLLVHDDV
row,KIT % at single concentration (printed in KIT IC50 column) [%@10 uM],SMILES
1,59,"CC(c1ccc(CNC(=O)c2ccc3c(c2)[nH]c(=O)n3C)cn1)N1CCC(C(F)(F)F)C1 (stereo not shown) [Example 112, 1-Methyl-2-oxo-N-((6-(1-(3-(trifluoromethyl)pyrrolidin-1-yl)ethyl)pyridin-3-yl)methyl)-2,3-dihydro-1H-benzimidazole-5-carboxamide]"

# Same assay, conditions: Table 98
row,IC50 [nM],SMILES
1,210,Cc1ccc(CN(C)c2ccc(CNC(=O)c3ccc4c(c3)[nH]c(=O)n4C)cn2)nc1 [Example 79]
2,150,CCN(CC)c1ccc(CNC(=O)c2ccc3c(c2)[nH]c(=O)n3C)cn1 [Example 85]
3,660,"Cn1c(=O)[nH]c2cc(C(=O)NCc3cnc4c(c3)ncn4-c3c(F)cccc3F)ccc21 [Compound 21, N-((3-(2,6-Difluorophenyl)-3H-imidazo[4,5-b]pyridin-6-yl)methyl)-1-methyl-2-oxo-2,3-dihydro-1H-benzimidazole-5-carboxamide trifluoroacetate]"
4,98,C[C@H](NC(=O)c1ccc2c(c1)[nH]c(=O)n2C)c1ccc(N(C)c2ccccc2F)nc1 [Example 88]
5,61,"Cn1c(=O)[nH]c2cc(C(=O)NCc3ccc(C(F)c4ccc(F)cc4)nc3)ccc21 (stereo not shown) [Compound 16, N-((6-(Fluoro(4-fluorophenyl)methyl)pyridin-3-yl)methyl)-1-methyl-2-oxo-2,3-dihydro-1H-benzimidazole-5-carboxamide]"
6,78,"Cn1c(=O)[nH]c2cc(C(=O)NCc3ccc(N(c4ccc(F)cc4)C4CC4)nc3)ccc21 [Compound 23, N-((6-(Cyclopropyl(4-fluorophenyl)amino)pyridin-3-yl)methyl)-1-methyl-2-oxo-2,3-dihy dro-1H-benzimidazole-5-carboxamide]"
7,74,"CC(NC(=O)c1ccc2c(c1)[nH]c(=O)n2C)c1ccc(Oc2ccc(F)cc2F)nc1 (stereo not shown) [Compound 27, N-(1-(6-(2,4-Difluorophenoxy)pyridin-3-yl)ethyl)-1-methyl-2-oxo-2,3-dihydro-1H-benzi midazole-5-carboxamide]"
8,40,"C[C@H](NC(=O)c1ccc2c(c1)[nH]c(=O)n2C)c1ccc(N(C)c2ccc(F)cc2)nc1 [Compound 13, (S)—N-(1-(6-((4-Fluorophenyl)(methyl)amino)pyridin-3-yl)ethyl)-1-methyl-2-oxo-2,3-d ihydro-1H-benzimidazole-5-carboxamide]"
9,150,CN(Cc1ccncn1)c1ccc(CNC(=O)c2ccc3c(c2)[nH]c(=O)n3C)cn1 [Example 81]
10,270,CN(CC1CC(F)(F)C1)c1ncc(CNC(=O)c2ccc3c(c2)[nH]c(=O)n3C)s1 [Example 93]
11,29,CN(c1ccc(F)cc1)c1ccc(CNC(=O)c2ccc3[nH]c(=O)[nH]c3c2)cn1 [Example 56]
12,360,"Cn1c(=O)[nH]c2cc(C(=O)NCc3cnc(NC4CCC(F)(F)CC4)s3)ccc21 [Compound 25, N-((2-((4,4-Difluorocyclohexyl)amino)thiazol-5-yl)methyl)-1-methyl-2-oxo-2,3-dihydro-1H-benzimidazole-5-carboxamide]"
13,120,CC(C)N(C)c1cnc(CNC(=O)c2ccc3c(c2)[nH]c(=O)n3C)cn1 [Example 94]
14,460,"Cn1c(=O)[nH]c2cc(C(=O)NCc3ccc(Oc4cccc(C#N)c4)nc3)ccc21 [Compound 22, N-((6-(3-Cyanophenoxy)pyridin-3-yl)methyl)-1-methyl-2-oxo-2,3-dihydro-1H-benzimid azole-5-carboxamide trifluoroacetate]"
15,270,"CN1CCN(Cc2cccc(N(C)c3ccc(CNC(=O)c4ccc5c(c4)[nH]c(=O)n5C)cn3)c2)CC1 [Compound 26, 1-Methyl-N-((6-(methyl(3-((4-methylpiperazin-1-yl)methyl)phenyl)amino)pyridin-3-yl)methyl)-2-oxo-2,3-dihydro-1H-benzimidazole-5-carboxamide trifluoroacetate]"
16,68,Cn1c(=O)[nH]c2cc(C(=O)NCc3ccc(N(C)[C@H]4C[C@H](C(F)(F)F)C4)nc3)ccc21 [Example 87]

row,SMILES,IC50 [nM]
1,Cn1c(=O)[nH]c2cc(C(=O)NCc3ccc(Oc4cc(F)ccc4F)nc3)ccc21 [Example 41],36
2,Cn1c(=O)[nH]c2cc(C(=O)NCc3ccc(Oc4c(F)cccc4F)nc3)ccc21 [Example 40],39
3,Cn1c(=O)[nH]c2cc(C(=O)NCc3ccc(Oc4ccc(F)c(F)c4)nc3)ccc21 [Example 37],310
4,Cn1c(=O)[nH]c2cc(C(=O)NCc3ccc(Oc4ccc(Cl)c(F)c4)nc3)ccc21 [Example 38],60
5,CC(NC(=O)c1ccc2c(c1)[nH]c(=O)n2C)c1ccc(Oc2ccc(Cl)cc2F)nc1 (stereo not shown) [Example 52],24
6,CC(NC(=O)c1ccc2c(c1)[nH]c(=O)n2C)c1ccc(Oc2ccc(F)c(F)c2)nc1 (stereo not shown) [Example 51],210
7,"CN1CCC(N(C)c2ccc(CNC(=O)c3ccc4c(c3)[nH]c(=O)n4C)cn2)CC1 [Compound 24, 1-Methyl-N-((6-(methyl(1-methylpiperidin-4-yl)amino)pyridin-3-yl)methyl)-2-oxo-2,3-dihydro-1H-benzimidazole-5-carboxamide]",340
8,"C[C@H](NC(=O)c1ccc2c(c1)[nH]c(=O)n2C)c1ccc(Oc2ccc(F)c(F)c2)nc1 [Compound 7, (S)—N-(1-(6-(3,4-Difluorophenoxy)pyridin-3-yl)ethyl)-1-methyl-2-oxo-2,3-dihydro-1H-benzimidazole-5-carboxamide]",40
9,Cn1c(=O)[nH]c2cc(C(=O)NCc3ccc(Oc4ccc5[nH]ncc5c4)nc3)ccc21 [Example 46],27
10,C[C@H](NC(=O)c1ccc2c(c1)[nH]c(=O)n2C)c1ccc(Oc2cccc(F)c2F)nc1 [Example 55],37
11,CC(NC(=O)c1ccc2c(c1)[nH]c(=O)n2C)c1ccc(Oc2cccc(F)c2F)nc1 (stereo not shown) [Example 53],79
12,Cn1c(=O)[nH]c2cc(C(=O)NCc3ccc(Oc4c(F)cc(F)cc4F)nc3)ccc21 [Example 42],27
13,Cc1ccc(N(C)c2ccc(CNC(=O)c3ccc4c(c3)[nH]c(=O)n4C)cn2)cn1 [Example 63],37
14,Cc1cc(CNC(=O)c2ccc3c(c2)[nH]c(=O)n3C)cnc1Oc1ccc(F)cc1 [Example 45],130
15,Cc1cc(CNC(=O)c2ccc3c(c2)[nH]c(=O)n3C)cnc1Oc1ccccc1 [Example 43],140

# Same assay, conditions: Table 99
row,IC50 [nM],SMILES
1,108,"COC(=O)C(NC(=O)c1ccc2c(c1)[nH]c(=O)n2C)c1ccc(N(C)C(C)C)nc1 (stereo not shown) [Example 114a, Methyl 2-(6-(isopropyl(methyl)amino)pyridin-3-yl)-2-(1-methyl-2-oxo-2,3-dihydro-1H-benzimidazole-5-carboxamido)acetate]"
2,317,"CC(C)N(C)c1ccc(C(CO)NC(=O)c2ccc3c(c2)[nH]c(=O)n3C)cn1 (stereo not shown) [Example 114b, N-(2-hydroxy-1-(6-(Isopropyl(methyl)amino)pyridin-3-yl)ethyl)-1-methyl-2-oxo-2,3-dih ydro-1H-benzimidazole-5-carboxamide]"
3,126,CN(c1ccc(CNC(=O)c2ccc3c(c2)[nH]c(=O)n3C)cn1)C1CCC2(CC1)COC2 [Example 123]
4,2000,"CC(C)N(C)c1ccc(C(NC(=O)c2ccc3c(c2)[nH]c(=O)n3C)c2ccccc2)cn1 (stereo not shown) [Example 113, N-((6-(Isopropyl(methyl)amino)pyridin-3-yl)(phenyl)methyl)-1-methyl-2-oxo-2,3-dihydr o-1H-benzimidazole-5-carboxamide]"

row,SMILES,IC50 [nM]
1,CC(CO)N(C)c1ccc(CNC(=O)c2ccc3c(c2)[nH]c(=O)n3C)cn1 (stereo not shown) [Example 133],75
